Values joined by “and” are separate entries in the source; they are usually repeats but may differ in a detail not shown here. Equal values may be shown once. Read-outs that look alike come from different tables or passages of the source. Marks after values point to notes of the source that are not given here. Each block holds one molecule with its values, some of them ahead of it.
Key:
[1] = Nonenzymatic C-6 deuterium exchange catalyzed by deuterioxide ion in D2O; settings: for kHO, second-order rate constant for proton transfer from C-6 to hydroxide ion: H2O, calculated from kDO using kDO/kHO = 2.4; for kHO, second-order rate constant for proton transfer from C-6 to hydroxide ion / kDO, second-order rate constant for deuterioxide-ion-catalyzed deuterium exchange at C-6: 25 °C; for (Keq)aq, equilibrium constant for proton transfer from C-6 to a primary amine base of pKRNH3 = 7 in water: eq 12, pKCH of model nucleosides uridine and 5-fluorouridine; for kDO, second-order rate constant for deuterioxide-ion-catalyzed deuterium exchange at C-6: D2O
[2] = target: T1, yeast orotidine 5′-monophosphate decarboxylase (ScOMPDC) (Saccharomyces cerevisiae, UniProt P03962, A160S/C155S/N267D/S2H); settings: for kex, turnover number for deuterium exchange into enzyme-bound substrate / kex/Kd, second-order rate constant for enzyme-catalyzed deuterium exchange / (kex)max, intrinsic first-order rate constant (turnover number) for deuterium exchange into saturating substrate bound to the deprotonated enzyme: I = 0.1 (NaCl); for kex/Kd, second-order rate constant for enzyme-catalyzed deuterium exchange: ratio of kex and Kd; for free energy of binding to form the Michaelis complex: deprotonated enzyme; for (Keq)enz, equilibrium constant for proton transfer from C-6 of bound nucleotide to ScOMPDC: eq 11, krot = 10^7 s^−1; for Kd′/Kd, ratio of dissociation constants from protonated and deprotonated enzyme: from pKE - pKES; for stabilization of enzyme-bound vinyl carbanion relative to bound nucleotide: lower limit; for (kex)max, intrinsic first-order rate constant (turnover number) for deuterium exchange into saturating substrate bound to the deprotonated enzyme: pD-rate profile of kex fit to eq 7, D2O, 25 °C
[3] = pKa of the N-3 hydron, spectrophotometric; format: physicochemical
[4] = pKa of the phosphoryl group by titration; format: physicochemical; settings: D2O, I = 0.1, estimated from UMP pKa in H2O plus 0.5 unit
[5] = target: T1, yeast orotidine 5′-monophosphate decarboxylase (ScOMPDC); assay: biochemical
ScOMPDC [6] = settings: cited from earlier work; for Kd: read-out: (Kd)obsd, observed affinity of ScOMPDC, pH 7.2, H2O
ScOMPDC [7] = settings: pH 7.1, 25 °C; cited from earlier work
[8] = aqueous solution; cited from earlier work
[9] = titration, H2O, 25 °C, I = 0.1; cited from earlier work
[10] = cited from earlier work

T1 sequence (P03962 whole entry S2H/C155S/A160S/N267D): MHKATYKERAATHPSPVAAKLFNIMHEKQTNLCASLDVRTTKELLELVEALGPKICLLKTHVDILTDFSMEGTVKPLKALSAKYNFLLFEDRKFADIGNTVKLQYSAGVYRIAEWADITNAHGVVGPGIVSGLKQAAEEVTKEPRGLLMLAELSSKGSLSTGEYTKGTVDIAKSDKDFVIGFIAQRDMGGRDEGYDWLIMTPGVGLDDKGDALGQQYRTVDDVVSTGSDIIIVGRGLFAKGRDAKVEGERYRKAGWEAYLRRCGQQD

kHO, second-order rate constant for proton transfer from C-6 to hydroxide ion [1]: 0.00016 M⁻¹ s⁻¹
SMILES: O=c1ccn([C@@H]2O[C@H](CO)[C@@H](O)[C@H]2O)c(=O)[nH]1 [Uridine, uridine]

SMILES: O=c1[nH]c(=O)n([C@@H]2O[C@H](COP(=O)(O)O)[C@@H](O)[C@H]2O)cc1F [F-UMP, 5-fluorouridine 5′-monophosphate]
(Keq)aq, equilibrium constant for proton transfer from C-6 to a primary amine base of pKRNH3 = 7 in water [1]: 8 × 10^−19
decrease in pKa of the side chain of Lys-93 upon binding (pKE - pKES) [2]: 1.4 unit
transition state stabilization for deuterium exchange [2]: 14 kcal/mol
kex, turnover number for deuterium exchange into enzyme-bound substrate ([2]; D2O, pD 6.45, 25 °C, fit to eq 5): 0.00818 s⁻¹
kex/Kd, second-order rate constant for enzyme-catalyzed deuterium exchange ([2]; D2O, pD 6.45, 25 °C): 8.3 M⁻¹ s⁻¹
kex, turnover number for deuterium exchange into enzyme-bound substrate ([2]; D2O, pD 7.03, 25 °C, fit to eq 5): 0.0169 s⁻¹
kex/Kd, second-order rate constant for enzyme-catalyzed deuterium exchange ([2]; D2O, pD 7.03, 25 °C): 33 M⁻¹ s⁻¹
kex, turnover number for deuterium exchange into enzyme-bound substrate ([2]; D2O, pD 7.37, 25 °C, fit to eq 5): 0.0242 s⁻¹
kex/Kd, second-order rate constant for enzyme-catalyzed deuterium exchange ([2]; D2O, pD 7.37, 25 °C): 140 M⁻¹ s⁻¹
kex, turnover number for deuterium exchange into enzyme-bound substrate ([2]; D2O, pD 7.64, 25 °C, fit to eq 5): 0.0324 s⁻¹
kex/Kd, second-order rate constant for enzyme-catalyzed deuterium exchange ([2]; D2O, pD 7.64, 25 °C): 300 M⁻¹ s⁻¹
kex for deuterium exchange ([2]; D2O, pD 8.15, 25 °C, I = 0.10 (NaCl), fit of kobsd/[E] to eq 4): 0.048 s⁻¹
kex, turnover number for deuterium exchange into enzyme-bound substrate ([2]; D2O, pD 8.15, 25 °C, fit to eq 5): 0.0438 s⁻¹
kex/Kd, second-order rate constant for enzyme-catalyzed deuterium exchange ([2]; D2O, pD 8.15, 25 °C): 400 M⁻¹ s⁻¹
kex, turnover number for deuterium exchange into enzyme-bound substrate ([2]; D2O, pD 9.33, 25 °C, fit to eq 5): 0.0384 s⁻¹
kex/Kd, second-order rate constant for enzyme-catalyzed deuterium exchange ([2]; D2O, pD 9.33, 25 °C): 200 M⁻¹ s⁻¹
stabilization of the transition state for deuterium exchange by the 5-fluoro substituent ([2]; F-UMP vs UMP): 4.8 kcal/mol
pKE, pKa of the essential residue at the free enzyme ([2]; Saccharomyces cerevisiae): 8.5 ± 0.2 ^d
pKES, pKa of the essential residue (Lys-93) at the E•S complex ([2]; Saccharomyces cerevisiae): 7.1 ± 0.1 ^f
free energy of binding to form the Michaelis complex [2]: 6.4 kcal/mol
(Keq)enz, equilibrium constant for proton transfer from C-6 of bound nucleotide to ScOMPDC [2]: 4.1 × 10^−9
Kd′/Kd, ratio of dissociation constants from protonated and deprotonated enzyme [2]: 25
stabilization of enzyme-bound vinyl carbanion relative to bound nucleotide [2]: at least 13 kcal/mol
(kex)max, intrinsic first-order rate constant (turnover number) for deuterium exchange into saturating substrate bound to the deprotonated enzyme [2]: 0.041 s⁻¹
total enzymatic rate acceleration for deuterium exchange ([2]; ratio of (kex)max/Kd and ko for 5-fluorouridine at pH 7.1): 3e+10 M⁻¹
pKa ([3]; buffered D2O): 8.37 ± 0.05
pKa ([3]; buffered H2O): 7.84 ± 0.03
pKSD2, ionization of the phosphoryl group [4]: 6.8
Kd [5]: 140 µM

SMILES: O=c1ccn([C@H]2C[C@H](O)[C@@H](COP(=O)(O)O)O2)c(=O)[nH]1 [2′-deoxyuridine 5′-monophosphate]
Kd (ScOMPDC [6]): 170 µM

kDO, second-order rate constant for deuterioxide-ion-catalyzed deuterium exchange at C-6 [1]: 6.8e-05 M⁻¹ s⁻¹
kHO, second-order rate constant for proton transfer from C-6 to hydroxide ion [1]: 2.8e-05 M⁻¹ s⁻¹
SMILES: O=c1[nH]c(=O)n(C2OC(CO)C(O)C2O)cc1F (stereo not drawn) [5-Fluorouridine N-3 Anion, 5-fluorouridine N-3 anion]

SMILES: O=C(O)c1cc(=O)[nH]c(=O)n1[C@@H]1O[C@H](COP(=O)(O)O)[C@@H](O)[C@H]1O [OMP, orotidine 5′-monophosphate]
kcat for decarboxylation (ScOMPDC [7]): 15 s⁻¹
ko, nonenzymatic decarboxylation [8]: 2.8e-16 s⁻¹
pKa of the phosphoryl group [9]: 6.38

SMILES: O=c1[nH]c(=O)n([C@H]2C[C@H](O)[C@@H](COP(=O)(O)O)O2)cc1F [5-fluoro-2′-deoxyuridine 5′-monophosphate]
Kd (ScOMPDC [6]): 250 µM
pKa of the N-3 proton (pKNH) ([10]; H2O, 25 °C, I = 0.1): 7.90

SMILES: O=C[C@H](O)[C@H](O)[C@H](O)COP(=O)(O)O [ribose 5′-monophosphate]
pKa of the phosphoryl group [9]: 6.25

SMILES: O=c1ccn([C@@H]2O[C@H](COP(=O)(O)O)[C@@H](O)[C@H]2O)c(=O)[nH]1 [UMP, uridine 5′-monophosphate]
(Keq)aq, equilibrium constant for proton transfer from C-6 to a primary amine base of pKRNH3 = 7 in water [1]: 2 × 10^−22
pKa of the N-3 proton (pKNH) ([10]; H2O, 25 °C, I = 0.1): 9.7
pKNH ([10]; ref Jencks, Regenstein, Handbook of Biochemistry and Molecular Biology 1976): 9.5
decrease in pKa of the side chain of Lys-93 upon binding (pKE - pKES) [2]: 0.5 unit
kex, turnover number for deuterium exchange into enzyme-bound substrate ([2]; D2O, pD 7.03, 25 °C, average of kobsd[UMP]o/[E]): 1.2e-06 s⁻¹
kex, turnover number for deuterium exchange into enzyme-bound substrate ([2]; D2O, pD 7.58, 25 °C, average of kobsd[UMP]o/[E]): 3.19e-06 s⁻¹
kex, turnover number for deuterium exchange into enzyme-bound substrate ([2]; D2O, pD 8.13, 25 °C, average of kobsd[UMP]o/[E]): 7.53e-06 s⁻¹
kex, turnover number for deuterium exchange into enzyme-bound substrate ([2]; D2O, pD 9.34, 25 °C, average of kobsd[UMP]o/[E]): 1.15e-05 s⁻¹
free energy of binding to form the Michaelis complex [2]: 6.4 kcal/mol
(Keq)enz, equilibrium constant for proton transfer from C-6 of bound nucleotide to ScOMPDC [2]: 1.2 × 10^−12
Kd′/Kd, ratio of dissociation constants from protonated and deprotonated enzyme [2]: 3
stabilization of enzyme-bound vinyl carbanion relative to bound nucleotide [2]: at least 13 kcal/mol
hydrolysis of the 5′-phosphoryl group during exchange reaction ([2]; pD 7.0): up to 19%
hydrolysis of the glycosidic bond to give uracil during exchange reaction ([2]; pD 7.0): up to 24%
hydrolysis of the 5′-phosphoryl group to give uridine during exchange reaction ([2]; pD 7.6 – 9.3): up to 4%
(kex)max, intrinsic first-order rate constant (turnover number) for deuterium exchange into saturating substrate bound to the deprotonated enzyme [2]: 1.2e-05 s⁻¹
pKa of the phosphoryl group [9]: 6.26 and 6.3

SMILES: O=c1cnn([C@@H]2O[C@H](COP(=O)(O)O)[C@@H](O)[C@H]2O)c(=O)[nH]1 [6-aza-UMP, 6-azauridine 5′-monophosphate]
Ki (ScOMPDC [6]; pH 7.2, competitive inhibitor): 0.093 µM
deuterium exchange into UMP (2 mM) in the presence of inhibitor ([2]; 2 mM 6-aza-UMP, 260 μM ScOMPDC, 2 days, pD 9.3, 25 °C): no detectable deuterium exchange

kDO, second-order rate constant for deuterioxide-ion-catalyzed deuterium exchange at C-6 [1]: 1.5e-08 M⁻¹ s⁻¹
kHO, second-order rate constant for proton transfer from C-6 to hydroxide ion [1]: 6.3e-09 M⁻¹ s⁻¹
SMILES: O=c1ccn([C@@H]2O[C@H](CO)[C@@H](O)[C@H]2O)c(=O)[nH]1 [Uridine N-3 Anion, uridine N-3 anion]

SMILES: O=c1[nH]c(=O)n([C@H]2C[C@H](O)[C@@H](CO)O2)cc1F [5-fluoro-2′-deoxyuridine]
pKa of the N-3 proton ([10]; H2O, 25 °C, I = 0.1): 7.67

kDO, second-order rate constant for deuterioxide-ion-catalyzed deuterium exchange at C-6 [1]: 0.043 M⁻¹ s⁻¹
kHO, second-order rate constant for proton transfer from C-6 to hydroxide ion [1]: 0.018 M⁻¹ s⁻¹
SMILES: Cn1cc(F)c(=O)n(C)c1=O

kDO, second-order rate constant for deuterioxide-ion-catalyzed deuterium exchange at C-6 [1]: 1.7 M⁻¹ s⁻¹
kHO, second-order rate constant for proton transfer from C-6 to hydroxide ion [1]: 0.71 M⁻¹ s⁻¹
ko = kHO[HO^−], observed rate constant for C-6 deprotonation by hydroxide ion ([1]; water, pH 7.1): 9e-08 s⁻¹
SMILES: O=c1[nH]c(=O)n([C@@H]2O[C@H](CO)[C@@H](O)[C@H]2O)cc1F [5-Fluorouridine, 5-fluorouridine]
